Measurements published in US6046231A, “Use of 4'-bromoflavone in a cancer chemopreventative composition and method” (The Board of Trustees of the University of Illinois, priority 1999, dated 2000).

Tested on: quinone reductase (QR), mutant Hepa 1c1c7 cells (TAOBP^r cl and BP^r cl)
Test: QR induction in mutant Hepa 1c1c7 cell lines (mono-/bifunctional inducer)
Format: cell-based, murine
Settings: wild-type vs mutant cells
Description: Determination of Quinone Reductase Activity in Cell Cultures. To determine the potency of inducers, Hepa 1c1c7 murine hepatoma cells as described in the Gerhauser publication were placed in 96-well plates at a density of 1×10^4 cells/ml in 200 μl of medium. After a preincubation period of 24 hr, the media were decanted and 190 μl fresh media were added to each well. Ten (10) μl test agents dissolved in 10% DMSO (final concentration of DMSO is 0.5%) with a serial 2-fold dilutions were introduced to each well, and the plates were incubated for an additional 48 hours. Specific QR activity was determined by measuring the NADPH-dependent menadiol-mediated reduction of 3-(4, 5-dimethylthiazo-2-yl)-2,5-diphenyltetrazolium bromide to blue formazan formed per mg protein per minute. Protein was determined in an identical set of test plates by staining with crystal violet. […] Induction of QR activity was calculated by comparing the QR specific activity of agent-treated cells with that of solvent-treated cells, and a plot of ratio was generated. […]
Induction of Quinone Reductase in Hepa 1c1c7 Cells. […] Induction of QR activity was calculated by comparing the QR specific activity of agent-treated cells with the QR specific activity of solvent-treated cells, and a plot of ratios was generated. […]

O=c1cc(-c2ccc(Br)cc2)oc2ccccc12 [4'-Bromoflavone]
inducer type (mono-/bifunctional): bifunctional inducer
